Measured values as given in patent publication US10799439B2, “Coating of clay micro-tubes on surfaces of hair and natural fibers” (Louisiana Tech Research Corporation, priority 2017, dated 2020).

Assay: dye/drug loading of halloysite micro-tubes (TGA)
Format: physicochemical
Conditions: SDS-hydrophobized halloysite lumen
Experimental: One example method of loading the micro-tubes with a (substantially) water soluble hair dye agent uses the dye Indigo carmine. The Indigo carmine dye is dissolved in 1 mL of DI water at a ratio of 4% by weight (i.e., 40 mg of dye) under sonication. 40 mg of halloysite is added to the dispersion and sonicated until a homogeneous dispersion is obtained. The dispersion is place under a low vacuum (e.g., at approximately 1 psi or less) for three cycles, one hour for each cycle. The halloysite is then thoroughly washed with DI water five time by centrifuging at 10,600 rcf for three minutes. The washed halloysite was then dried in a hot air oven at 60° C. This procedure produced a 6 to 8 weight percent dye loading efficiency, i.e., weight of dye with respect to the weight of clay micro-tubes. However, different procedures may be used and generally it is desirable to generate micro-tubes loaded to about 5 to 10 weight percent dye loading efficiency, but in other embodiments, the loading efficiency could be between 2 to 35 weight percent (or any sub-range in between, with one specific example being 2% to 15%).
One example method of loading the micro-tubes with a (substantially) water insoluble hair dye agent uses the dye Lawsone. It is preferable to modify the halloysite lumen surface to allow more ready binding of nonpolar molecules. […]

CC1(C)C(C=C(Cl)Cl)C1C(=O)OCc1cccc(Oc2ccccc2)c1 (stereo not shown) [permethrin, Permethrin]
content in loaded nanotubes (TGA analysis): 3-5 wt. %
